The source of these data is US20110256121A1, “METHODS AND KITS FOR DIAGNOSING OR MONITORING AUTOIMMUNE AND CHRONIC INFLAMMATORY DISEASES” (THE REGENTS OF THE UNIVERSITY OF MICHIGAN, priority 2008, published 2011).

SMILES strings stand for the structures. A value given as a limit tells only on which side of the number the result lay.

Holding throughout (assay type): cell-based, human
One assay concerns T cell gene expression. In words: Microarray detection of KIR expression in 5-azaC treated T cells. Here is the method: (§1) T cell purification and culture. Peripheral blood mononuclear cells (PBMC) were isolated from healthy donors by density gradient centrifugation, stimulated for 18 hours with 1 μg/mlphytohemagglutinin (PHA) (Murex, Norcross, Ga.), then treated or not with 5 μm 5-azacytidine (5-azaC, Sigma, St. Louis, Mo.) for 72 hours as described (6). Total T cells, CD4^+ T cells or CD8′ T cells then were purified using the pan T cell isolation kit II or the CD4^+ and CD8^+ T cell isolation kit II from Miltenyi (Auburn, Calif.). T cells were typically >94% CD3^+ by flow cytometry. Jurkat cells (E6-1) were maintained in culture as described (11). This protocol was approved by the University of Michigan Institutional Review Board.
Microarray analysis. RNA from 5-azaC treated and untreated T cells was analyzed with HG-U133A arrays (Affymetrix, Santa Clara Calif.), containing 22283 probe-sets representing ˜13000 distinct genes, as described (6). Probe-set intensities were obtained and normalized as described (12). Two-sample T-tests were used to compare groups, and fold-changes were determined using the ratio of the group means, after replacing means of less than 50 with 50. The array data are available from NCBI's Gene Expression Omnibus using series accession number GSE6008.
Microarray detection of KIR expression in 5-azaC treated T cells. Effects of DNA methylation inhibition on T cell gene expression were tested by stimulating PBMC from healthy donors with PHA, treating with 5-azaC, and comparing gene expression patterns in treated and untreated T cells with microarrays. 682 probe-sets were obtained giving p<0.01, out of a total of 22283 probe-sets, so that approximately 223 of the 682 probe-sets were expected to be false-positives. Further demanding at least a 1.5 fold difference in the means of treated and untreated groups reduced the list to 250 probe-sets, 6 of which were KIR genes (KIR2DL1 5.7 fold p=0.003, KIR3DL1 5.7 fold p=0.001, KIR2DL2 4.2 fold p=0.0005, KIR2DS4 2.8 fold p=0.009, KIR2DL3 2.3 fold p=0.004, and KIR2DL4 1.7 fold p=0.008), out of a total of 12 KIR genes on the array, indicating enrichment of this gene family (FIG. 24).

The next assay deals with KIR2DL4. In words: KIR2DL4 transcripts by real-time quantitative RT-PCR. As to conditions: relative to β-actin, p<0.001 for both. As to the method: as §1
Real-time quantitative RT-PCR. Total RNA was isolated using the RNeasy Mini Kit (QIAGEN, Valencia, Calif.). Primers were designed to match polymorphic positions unique to KIR2DL2 or KIR2DL4 genes as described by Uhrberg et al. (13). Controls included β-actin primers as described (14). Real-time quantitative RT-PCR was performed with a Rotor-Gene 3000 (Corbett Robotics, San Francisco, Calif.) and QuantiTect SYBR Green RT-PCR kit (QIAGEN) according to manufacturer's instructions. cDNA synthesized from T cells was used to generate standard curves for β-actin, KIR2DL2 and KIR2DL4, and each experiment was repeated at least twice.

In a further assay the test system is Sp1. In words: Sp1 quantitation in nuclear extracts of T cells. As to conditions: PHA-stimulated T cells, 5-azaC 72 h.

On to `Nc1ncn([C@@H]2O[C@H](CO)[C@@H](O)[C@H]2O)c(=O)n1` [5-azaC, 5-azacytidine], for which, in the assay with T cell gene expression (PHA-stimulated, p=0.0005), the “KIR2DL2 expression, treated vs untreated” value came to 4.2 fold. In the assay on T cell gene expression (PHA-stimulated, p=0.001), the “KIR3DL1 expression, treated vs untreated” value came out at 5.7 fold. For the same compound, the “KIR2DL1 expression, treated vs untreated” value in the assay with T cell gene expression (PHA-stimulated, p=0.003) is recorded as 5.7 fold. Moreover, the “KIR2DL3 expression, treated vs untreated” value in the assay on T cell gene expression (PHA-stimulated, p=0.004) amounted to 2.3 fold. Moreover, the “KIR2DL4 expression, treated vs untreated” value in the assay on T cell gene expression (PHA-stimulated, p=0.008) worked out at 1.7 fold. For the same compound, the “KIR2DS4 expression, treated vs untreated” value with T cell gene expression (PHA-stimulated, p=0.009) came to 2.8 fold. In addition, in the assay with T cell gene expression (not statistically significant), the KIR2DS1 expression increase is given as greater than 1.5 fold, the KIR2DS3 expression increase is given as greater than 1.5 fold and the KIR3DL2 expression increase is listed as greater than 1.5 fold. Moreover, the “KIR2DL4 mRNA in CD4+ and CD8+ T cells” value in the assay with KIR2DL4 is on record as “increase is significant on both subsets”. In the assay with Sp1, the “activated Sp1 levels” value is reported as “increases activated Sp1 levels”.
